# Measurements from ChEMBL document CHEMBL6087455 (Eur J Med Chem, 2025).
# The source made the active and inactive calls. No cut-off for these calls is given here.
# Assays:
# BV-2 [1] = test: Neuroprotective activity against LPS-induced neuronal damage in mouse BV-2 cells assessed as cell viability at 1 uM preincubated with compound for 1 hrs followed by LPS addition and measured after 24 hrs by Muse cell analyzer (reference value: 79.2 +/- 1.1 %); type: functional; conditions: time 25 hrs, read-out: Activity
# Acetylcholinesterase = target: T1, Acetylcholinesterase (Rattus norvegicus, UniProt P37136); test: Inhibition of wistar rat brain AChE using acetylthiocholine iodide as substrate preincubated for 10 mins followed by substrate addition and measured after 5 mins by DTNB reagent based spectrophotometric Ellman's method
# T1 sequence (P37136 whole entry): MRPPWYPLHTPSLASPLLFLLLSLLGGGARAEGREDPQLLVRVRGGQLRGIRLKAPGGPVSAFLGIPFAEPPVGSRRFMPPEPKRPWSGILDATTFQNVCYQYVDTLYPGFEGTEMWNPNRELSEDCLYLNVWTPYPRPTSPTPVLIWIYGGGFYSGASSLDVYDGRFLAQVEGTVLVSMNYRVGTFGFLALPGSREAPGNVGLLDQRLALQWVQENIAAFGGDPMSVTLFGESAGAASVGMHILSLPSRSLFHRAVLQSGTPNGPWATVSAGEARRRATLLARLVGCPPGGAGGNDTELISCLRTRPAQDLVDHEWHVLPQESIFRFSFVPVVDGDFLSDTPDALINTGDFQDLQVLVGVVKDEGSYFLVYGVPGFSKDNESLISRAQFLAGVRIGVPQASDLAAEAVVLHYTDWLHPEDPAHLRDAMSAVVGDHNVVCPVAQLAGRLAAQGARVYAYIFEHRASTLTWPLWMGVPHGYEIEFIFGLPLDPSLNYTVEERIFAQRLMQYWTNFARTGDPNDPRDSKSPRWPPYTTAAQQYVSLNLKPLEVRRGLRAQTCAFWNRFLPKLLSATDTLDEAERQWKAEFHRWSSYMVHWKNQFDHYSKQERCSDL
# BV-2 [2] = test: Antioxidant activity in LPS-induced mouse BV-2 cells assessed as reduction in ROS production at 1 uM preincubated with compound for 1 hrs followed by LPS addition and measured after 24 hrs by Muse cell analyzer relative to control; type: functional; set-up: scale not given: the % may be the effect or the level left
# BV-2 [3] = test: Neuroprotective activity against LPS-induced neuronal damage in mouse BV-2 cells assessed as increase in cell viability at 1 uM preincubated with compound for 1 hrs followed by LPS addition and measured after 24 hrs by Muse cell analyzer; type: functional, cell-based; conditions: time 25.0 hrs
# Caenorhabditis elegans [4] = test: Anti-alzheimer activity in amyloid-beta aggregation induced Caenorhabditis elegans GMC101 assessed as improvement in displacement per bend of worm at 10 uM administered from day 4 of adulthood and measured on day 7; type: functional, organism-based; conditions: time 4.0 day
# [5] = Induction of H2S release in PBS at pH 7.4 assessed as H2S concentration at 1 mM measured after 30 mins in presence of L-cysteine by Apollo-4000 free radical analyzer; type: functional
# [6] = target: Amyloid-beta precursor protein (Homo sapiens) (UniProt P05067); test: Inhibition of amyloid beta (1 to 42) (unknown origin) self aggregation at 10 uM preincubated with compound for 24 hrs followed by compound washout and measured after 24 hrs by ThT fluorescence based spectrophotometric analysis
# Neuronal like cell [7] = test: Neuroprotective activity against LPS/TNF-alpha-induced damage in human neuronal like cells assessed as increase in cell proliferation at 10 uM preincubated with compounds for 24 hrs followed by compound washout and measured after 16 hrs of LPS/TNF-alpha addition by MTS assay; type: functional, cell-based
# Caenorhabditis elegans [8] = test: Anti-alzheimer activity in amyloid-beta aggregation induced Caenorhabditis elegans GMC101 assessed as increase in worm motility at 10 uM administered from day 4 of adulthood and measured on day 5 to 7; type: functional, organism-based; conditions: time 4.0 day
# A549 [9] = test: Induction of autophagy in human A549 cells transfected with LC3-GFP plasmid assessed as increase in number of LC3 puncta at >3 uM measured after 24 hrs by high-content confocal microscopic analysis; type: functional, cell-based
# Neuronal like cell [10] = test: Antioxidant activity in human neuronal like cells assessed as reduction in LPS/TNF-alpha-induced ROS production at 10 uM preincubated with compound for 24 hrs followed by compound washout and measured after 16 hrs of LPS/TNF-alpha addition by H2DCF-DA based fluorescence analysis; type: functional
# A549 [11] = test: Cytotoxicity against human A549 cells transfected with LC3-GFP plasmid assessed as decrease in cell number upto 10 uM; type: toxicity, cell-based; conditions: a549, 10 µM
# Caenorhabditis elegans [12] = test: Anti-alzheimer activity in amyloid-beta aggregation induced Caenorhabditis elegans GMC101 assessed as improvement in speed of worm movement at 10 uM administered from day 4 of adulthood and measured on day 7; type: functional, organism-based; conditions: time 4.0 day
# Caenorhabditis elegans [13] = test: Anti-alzheimer activity in amyloid-beta aggregation induced Caenorhabditis elegans GMC101 assessed as increase in worm fitness at 10 uM administered from day 4 of adulthood and measured on day 7 relative to control; type: functional; conditions: time 4 day
# A549 [14] = test: Induction of autophagy in human A549 cells assessed as decrease in p62 level at >3 uM measured after 24 hrs by Western blotting analysis relative to control; type: functional; set-up: scale not given: the % may be the effect or the level left
# A549 [15] = test: Induction of autophagy in human A549 cells assessed as increase in LC3-II level at >3 uM measured after 24 hrs by Western blotting analysis; type: functional, cell-based
# [16] = Neuroprotective activity against LPS/TNF-alpha-induced damage in human neuronal like cells assessed as restoration of cell function at 10 uM preincubated with compounds for 72 hrs followed by compound washout and measured after 16 hrs of LPS/TNF-alpha addition by MTS assay relative to control; type: functional
# Amyloid-beta precursor protein (Homo sapiens), sequence (P05067 whole entry): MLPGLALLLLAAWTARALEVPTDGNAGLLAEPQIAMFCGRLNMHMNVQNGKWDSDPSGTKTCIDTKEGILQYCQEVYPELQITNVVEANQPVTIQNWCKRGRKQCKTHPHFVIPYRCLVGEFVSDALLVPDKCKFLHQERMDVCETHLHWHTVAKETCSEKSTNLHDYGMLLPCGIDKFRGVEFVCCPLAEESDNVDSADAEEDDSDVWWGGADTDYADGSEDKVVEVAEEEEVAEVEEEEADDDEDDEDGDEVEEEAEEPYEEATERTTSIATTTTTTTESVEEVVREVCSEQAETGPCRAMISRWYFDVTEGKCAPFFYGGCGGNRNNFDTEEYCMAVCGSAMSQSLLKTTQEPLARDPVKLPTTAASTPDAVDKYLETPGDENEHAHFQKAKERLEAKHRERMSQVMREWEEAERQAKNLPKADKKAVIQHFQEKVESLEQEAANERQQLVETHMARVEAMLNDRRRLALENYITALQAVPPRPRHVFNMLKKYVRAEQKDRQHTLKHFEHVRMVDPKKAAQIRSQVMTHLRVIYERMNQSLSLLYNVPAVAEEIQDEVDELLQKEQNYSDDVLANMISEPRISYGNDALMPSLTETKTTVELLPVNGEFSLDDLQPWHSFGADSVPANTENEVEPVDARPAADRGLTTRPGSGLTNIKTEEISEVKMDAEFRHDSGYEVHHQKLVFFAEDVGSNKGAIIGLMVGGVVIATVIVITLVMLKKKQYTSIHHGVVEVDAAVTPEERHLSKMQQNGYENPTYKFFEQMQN
SMILES,viability at 1 µM (BV-2 [1]) [%],IC50 (Acetylcholinesterase) [nM],Activity (BV-2 [2]; time 25 hrs) [%],Activity (BV-2 [3]),further results
CCN(C)C(=O)Oc1cccc(N=C=S)c1,85.5,870,10,,
CCN(C)C(=O)Oc1cccc(NC(=O)COc2ccc(-c3cc(=S)ss3)cc2)c1,,410,,inactive,Activity (BV-2 [2]; time 25.0 hrs): inactive
CCN(C)C(=O)Oc1cccc(C(N)=S)c1,85.7,440,23,,Activity (Caenorhabditis elegans [4]): Active; Activity [5]: 10 µM; inhibition [6]: Active; Comparable Activity With Nahs Observed; Activity (Neuronal like cell [7]): Active; Activity (Caenorhabditis elegans [8]): Active; Activity (A549 [9]): Active; Activity (Neuronal like cell [10]): Active; Activity (A549 [11]): Non-toxic; Activity (Caenorhabditis elegans [12]): Active; Slight Effect Observed; Activity (Caenorhabditis elegans [13]): 10.5%; Activity (A549 [14]): ~50%; Activity (A549 [15]): Active; Activity [16]: 100%
CCN(C)C(=O)Oc1cccc(CCN=C=S)c1,,1370,10,inactive,
CCN(C)C(=O)Oc1cccc(NC(=O)c2ccc(N=C=S)cc2)c1,,510,10,inactive,
[Na+].[SH-] [SODIUM HYDROSULFIDE],87.2,,27,,
CCN(C)C(=O)Oc1cccc(CN=C=S)c1,85.3,2190,10,,
CCN(C)C(=O)Oc1cccc([C@H](C)N(C)C)c1 [RIVASTIGMINE],84.1,,~10,,
